Laboratory results published in PMC10584170, “Machine learning-based phenotypic imaging to characterise the targetable biology of Plasmodium falciparum male gametocytes for the development of transmission-blocking antimalarials” (PLOS Pathogens, 2023).
pIC50: −log10 of the molar value. Read-outs that look alike come from different tables or passages of the source.

Experiments:
[1] = system: P. falciparum male gametocytes; assay: P. falciparum Dual Gamete Formation Assay (PfDGFA), male readout (exflagellation); assay type: cell-based, Plasmodium falciparum NF54; settings: for inhibition at 2 µM: 24h preincubation with gametocytes; for Activity: hit = >50% inhibition in male or female readout in at least 3 replicates, 0 = no class assigned
Summary of the method: (§1)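 Male and female gamete formation were quantified by microscopy image analysis following 24 h incubation of mature NF54 gametocytes with compound and activation at 28°C with xanthurenic acid.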

[2] = system: P. falciparum female gametocytes; assay: P. falciparum Dual Gamete Formation Assay (PfDGFA), female readout (Pfs25-positive female gametes); assay type: cell-based, Plasmodium falciparum NF54; settings: for inhibition at 2 µM: 24h preincubation with gametocytes
Summary of the method: as §1

[3] = PfDGFA at 2µM, 24h preincubation with gametocytes prior to induction of gametogenesis, replicate R1
[4] = PfDGFA at 2µM, 24h preincubation with gametocytes prior to induction of gametogenesis, replicate R3
[5] = PfDGFA at 2µM, 24h preincubation with gametocytes prior to induction of gametogenesis, replicate R4
[6] = PfDGFA at 2µM, 24h preincubation, average of replicates
[7] = 2µM, 24h preincubation with gametocytes prior to induction of gametogenesis, average of replicates
[8] = 2µM, 24h preincubation with gametocytes prior to induction of gametogenesis, replicate R1
[9] = 2µM, 24h preincubation with gametocytes prior to induction of gametogenesis, replicate R3
[10] = 2µM, 24h preincubation with gametocytes prior to induction of gametogenesis, replicate R4
[11] = 2µM, 24h preincubation, number of replicates with >50% inhibition in the male readout
[12] = 2µM, 24h preincubation, number of replicates with >50% inhibition in the female readout
[13] = 2µM, 24h preincubation, hits selected on >50% inhibition in the male readout across replicates
[14] = PfDGFA at 2µM, 24h preincubation
[15] = 2µM, 24h preincubation, hits selected on >50% inhibition in the female readout across replicates

Compound	Average inhibition male (%) [1, 7] [%]	% inhibition male (individual replicates) R1 [1, 8] [%]	% inhibition male (individual replicates) R3 [1, 9] [%]	% inhibition male (individual replicates) R4 [1, 10] [%]	HitlevelM [1, 11]	Average inhibition female (%) [2, 7] [%]	% inhibition female (individual replicates) R1 [2, 8] [%]	% inhibition female (individual replicates) R3 [2, 9] [%]	% inhibition female (individual replicates) R4 [2, 10] [%]	HitlevelF [2, 12]	HitlevelM [1, 13]	Activity [1, 14]	HitlevelF [2, 15]	other results
ON=C1CCc2cc(-c3cc(-c4ccc(OC5CCNCC5)cc4)oc3-c3ccncc3)ccc21 [TCMDC-141381]														% inhibition male (individual replicates) R1 [1, 3]: 12.4%; % inhibition male (individual replicates) R3 [1, 4]: 2.8%; % inhibition male (individual replicates) R4 [1, 5]: 13.5%; Average inhibition male (%) [1, 6]: 7.3%; % inhibition female (individual replicates) R1 [2, 3]: 10.4%; % inhibition female (individual replicates) R3 [2, 4]: -25.1%; % inhibition female (individual replicates) R4 [2, 5]: 18.2%; Average inhibition female (%) [2, 6]: 2.6%
COc1cc2ccccc2cc1OCCCN1CCN(CC(c2ccc(F)cc2)N2CCN(C(C)C)CC2)CC1.Cl (stereo not shown) [TCMDC-135496]	6.1	10.5	-16.9	18.2	0	22.9	29.5	8.0	29.0	0				
Cc1c(OC(C)C)nc2ccccc2c1C(=O)N[C@H](c1cccc(F)c1)C1CC1 [TCMDC-135994]														% inhibition male (individual replicates) R1 [1, 3]: 5.7%; % inhibition male (individual replicates) R3 [1, 4]: 14.1%; % inhibition male (individual replicates) R4 [1, 5]: 25.6%; Average inhibition male (%) [1, 6]: 14.7%; % inhibition female (individual replicates) R1 [2, 3]: 11.9%; % inhibition female (individual replicates) R3 [2, 4]: -14.7%; % inhibition female (individual replicates) R4 [2, 5]: 16.8%; Average inhibition female (%) [2, 6]: 1.3%
COCCn1c(Sc2ncnc3sccc23)nc2ccccc21 [TCMDC-125258]														Selectivity Ratio M ([1]; HepG2 Tox50 versus male IC50): 81.39; inhibition at 2 µM ([1]; Plasmodium falciparum, PfDGFA at 2µM, average of replicates, read-out: Average inhibition male (%)): 69.9%; inhibition at 2 µM ([1]; Plasmodium falciparum, PfDGFA at 2µM, replicate R1, read-out: % inhibition male (individual replicates) R1): 86.4%; inhibition at 2 µM ([1]; Plasmodium falciparum, PfDGFA at 2µM, replicate R2, read-out: % inhibition male (individual replicates) R2): 73.7%; inhibition at 2 µM ([1]; Plasmodium falciparum, PfDGFA at 2µM, replicate R3, read-out: % inhibition male (individual replicates) R3): 49.8%; inhibition at 2 µM ([1]; Plasmodium falciparum, PfDGFA at 2µM, replicate R4, read-out: % inhibition male (individual replicates) R4): 69.6%; pIC50 ([1]; Plasmodium falciparum, PfDGFA, 24 h incubation with gametocytes before induction, exflagellation readout, read-out: Male IC50): 5.91; HitlevelM ([1]; number of replicates with >50% inhibition in the male readout, 2µM): 3; Selectivity ratio F ([2]; HepG2 Tox50 versus female IC50): 94.48; inhibition at 2 µM ([2]; Plasmodium falciparum, PfDGFA at 2µM, average of replicates, read-out: Average inhibition female (%)): 60.4%; inhibition at 2 µM ([2]; Plasmodium falciparum, PfDGFA at 2µM, replicate R1, read-out: % inhibition female (individual replicates) R1): 48.4%; inhibition at 2 µM ([2]; Plasmodium falciparum, PfDGFA at 2µM, replicate R2, read-out: % inhibition female (individual replicates) R2): 75.4%; inhibition at 2 µM ([2]; Plasmodium falciparum, PfDGFA at 2µM, replicate R3, read-out: % inhibition female (individual replicates) R3): 37.4%; inhibition at 2 µM ([2]; Plasmodium falciparum, PfDGFA at 2µM, replicate R4, read-out: % inhibition female (individual replicates) R4): 80.3%; pIC50 ([2]; Plasmodium falciparum, PfDGFA, 24 h incubation with gametocytes before induction, female gamete readout, read-out: Female IC50): 5.97; HitlevelF ([2]; number of replicates with >50% inhibition in the female readout, 2µM): 2
c1cc(Cc2ccc(Nc3c4ccccc4nc4ccccc34)cc2)cc(Nc2c3ccccc3nc3ccccc23)c1 [TCMDC-137793]	2.5	17.2	-11.5	-9.8		14.4	13.9	7.5	13.1		0	0	0	
COc1ccc(O)cc1Cc1cnc2nc(N)nc(N)c2c1C [TCMDC-137498]	-10.8	7.6	-15.7	-40.5		6.7	14.0	17.6	8.3		0	0	0	
CN(CCc1ccccc1)c1ncc(-c2cccc(CNCCC3CCCN3C)c2)cn1 (stereo not shown) [TCMDC-133143]	57.0	66.7	31.4	52.9	3	35.0	22.5	13.4	55.4	1				
CCCCCOc1ccc(N2C(N)=NC(N)=NC2(C)C)cc1.Cl [TCMDC-137711]	-17.3	6.1	-21.6	-48.5		10.0	16.6	-26.0	23.4		0	0	0	
Cl.c1cc(CNC2Cc3ccccc3C2)cc(-c2cnc(N3CCNCC3)nc2)c1 [TCMDC-133140]	40.3	37.9	14.1	54.9	2	27.8	25.6	8.0	43.1	0				
O=C(O)C(F)(F)F.O=S(=O)(NCCN1CCCC1)c1ccc(-c2cccc(CNC3Cc4ccccc4C3)c2)cc1F [TCMDC-132221]	11.1	3.1		19.5	0	29.0	30.1	27.5	20.7	0				
CC(=O)Nc1ccc2[nH]cc(C3CCN(CC4CCC(NC(=O)/C=C/c5ccc(Cl)c(Cl)c5)CC4)CC3)c2n1 (stereo not shown) [TCMDC-140114]	48.3	53.7	39.7	57.6	2	33.1	26.2	29.8	41.8	0				
NC(CC1CC(=O)N1CC(=O)O)C(=O)O (stereo not shown) [TCMDC-139050]	-4.7	15.3	-15.7	-29.8		6.8	12.5	4.8	14.4		0	0	0	
CCCc1cc(Cc2cnc(N)nc2N)cc(CCC)c1O.Cl [TCMDC-137695]														% inhibition male (individual replicates) R1 [1, 3]: 13.3%; % inhibition male (individual replicates) R3 [1, 4]: -2.6%; % inhibition male (individual replicates) R4 [1, 5]: -24.5%; Average inhibition male (%) [1, 6]: -1.8%; % inhibition female (individual replicates) R1 [2, 3]: -0.04%; % inhibition female (individual replicates) R3 [2, 4]: -0.32%; % inhibition female (individual replicates) R4 [2, 5]: -11.2%; Average inhibition female (%) [2, 6]: -4.4%
Nc1nc(N)c2c(ccc3nn(C4CCCC4)cc32)n1 [TCMDC-137960]	-1.6	13.2		-27.5		4.4	5.0	5.0	9.1		0	0	0	
COc1ccc(Cn2c(Nc3cccc(C(F)(F)F)c3)nc3ccc(C(=O)NCCN4CCCC4)cc32)cc1Cl [TCMDC-138531]	-2.0	6.1	3.4	-8.5		9.2	9.3	-11.0	18.4		0	0	0	
